Assay results taken from PubChem BioAssay (NCI).
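Values below derive from 48-hour exposures of cells grown in 96-well plates, with endpoints linearly interpolated between the two concentrations bracketing the appropriate inhibition level. At the TGI there is no net growth.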

What was measured:
Test in all cases: NCI-60 cell line screen, 48 h
UACC-257 melanoma = system: UACC-257 melanoma
BT-549 breast = system: BT-549 breast
CCRF-CEM leukemia = system: CCRF-CEM leukemia
UACC-62 melanoma = system: UACC-62 melanoma
HL-60(TB) leukemia = system: HL-60(TB) leukemia
MDA-MB-231 breast = system: MDA-MB-231 breast
OVCAR-8 ovarian = system: OVCAR-8 ovarian
OVCAR-3 ovarian = system: OVCAR-3 ovarian
IGROV1 ovarian = system: IGROV1 ovarian
M14 melanoma = system: M14 melanoma
NCI-H460 lung = system: NCI-H460 lung
SK-OV-3 ovarian = system: SK-OV-3 ovarian
SF-268 CNS = system: SF-268 CNS
DU-145 prostate = system: DU-145 prostate
HCT-15 colon = system: HCT-15 colon
PC-3 prostate = system: PC-3 prostate
UO-31 renal = system: UO-31 renal
K-562 leukemia = system: K-562 leukemia
RPMI-8226 leukemia = system: RPMI-8226 leukemia
NCI-H522 lung = system: NCI-H522 lung
MDA-MB-435 = system: MDA-MB-435
HOP-62 NSCLC = system: HOP-62 NSCLC
SF-295 CNS = system: SF-295 CNS
SW-620 colon = system: SW-620 colon
HCC-2998 colon = system: HCC-2998 colon
OVCAR-4 ovarian = system: OVCAR-4 ovarian
HT29 colon = system: HT29 colon
COLO 205 colon = system: COLO 205 colon
EKVX NSCLC = system: EKVX NSCLC
SNB-75 CNS = system: SNB-75 CNS
SNB-19 CNS = system: SNB-19 CNS
MOLT-4 leukemia = system: MOLT-4 leukemia
786-0 renal = system: 786-0 renal
LOX IMVI melanoma = system: LOX IMVI melanoma
U251 CNS = system: U251 CNS
NCI-H23 lung = system: NCI-H23 lung
CAKI-1 renal = system: CAKI-1 renal
A498 renal = system: A498 renal
MALME-3M melanoma = system: MALME-3M melanoma
ACHN renal = system: ACHN renal
SK-MEL-5 melanoma = system: SK-MEL-5 melanoma
HOP-92 NSCLC = system: HOP-92 NSCLC
SN12C renal = system: SN12C renal
TK-10 renal = system: TK-10 renal
NCI-H226 lung = system: NCI-H226 lung
SK-MEL-2 melanoma = system: SK-MEL-2 melanoma
OVCAR-5 ovarian = system: OVCAR-5 ovarian
HS 578T breast = system: HS 578T breast
SK-MEL-28 melanoma = system: SK-MEL-28 melanoma
HCT-116 colon = system: HCT-116 colon
KM12 colon = system: KM12 colon
NCI/ADR-RES ovarian = system: NCI/ADR-RES ovarian
MDA-N = system: MDA-N
A549 NSCLC = system: A549 NSCLC
SF-539 CNS = system: SF-539 CNS

COc1ccccc1C(=O)c1c(NCc2ccccc2)c(=O)c1=O
TGI (UACC-257 melanoma): > 100 µM | TGI (BT-549 breast): > 100 µM | TGI (CCRF-CEM leukemia): > 100 µM | TGI (UACC-62 melanoma): > 100 µM | TGI (HL-60(TB) leukemia): > 100 µM | TGI (MDA-MB-231 breast): > 100 µM | TGI (OVCAR-8 ovarian): > 100 µM | TGI (OVCAR-3 ovarian): > 100 µM | TGI (IGROV1 ovarian): 95 µM | TGI (M14 melanoma): > 100 µM | TGI (NCI-H460 lung): > 100 µM | TGI (SK-OV-3 ovarian): > 100 µM | TGI (SF-268 CNS): > 100 µM | TGI (DU-145 prostate): > 100 µM | TGI (HCT-15 colon): > 100 µM | TGI (PC-3 prostate): > 100 µM | TGI (UO-31 renal): > 100 µM | TGI (K-562 leukemia): > 100 µM | TGI (RPMI-8226 leukemia): > 100 µM | TGI (NCI-H522 lung): 31.8 µM | TGI (MDA-MB-435): > 100 µM | TGI (HOP-62 NSCLC): > 100 µM | TGI (SF-295 CNS): > 100 µM | TGI (SW-620 colon): 37.8 µM | TGI (HCC-2998 colon): > 100 µM | TGI (OVCAR-4 ovarian): > 100 µM | TGI (HT29 colon): > 100 µM | TGI (COLO 205 colon): 98.7 µM | TGI (EKVX NSCLC): > 100 µM | TGI (SNB-75 CNS): > 100 µM | TGI (SNB-19 CNS): > 100 µM | TGI (MOLT-4 leukemia): 83.3 µM | TGI (786-0 renal): > 100 µM | TGI (LOX IMVI melanoma): > 100 µM | TGI (U251 CNS): > 100 µM | TGI (NCI-H23 lung): > 100 µM | TGI (CAKI-1 renal): > 100 µM | TGI (A498 renal): > 100 µM | TGI (MALME-3M melanoma): 75.9 µM | TGI (ACHN renal): > 100 µM | TGI (SK-MEL-5 melanoma): > 100 µM | TGI (HOP-92 NSCLC): > 100 µM | TGI (SN12C renal): > 100 µM | TGI (TK-10 renal): > 100 µM | TGI (NCI-H226 lung): > 100 µM | TGI (SK-MEL-2 melanoma): > 100 µM | TGI (OVCAR-5 ovarian): > 100 µM | TGI (HS 578T breast): > 100 µM | TGI (SK-MEL-28 melanoma): 35.8 µM | TGI (HCT-116 colon): > 100 µM | TGI (KM12 colon): > 100 µM | TGI (NCI/ADR-RES ovarian): > 100 µM | TGI (MDA-N): > 100 µM

COc1ccc(SCc2cc(OCc3ccccc3)c(OCc3ccccc3)c(OCc3ccccc3)c2)cc1
TGI (UACC-257 melanoma): 3.09 µM | TGI (BT-549 breast): 4.59 µM | TGI (CCRF-CEM leukemia): 3.49 µM | TGI (HL-60(TB) leukemia): 3.44 µM | TGI (MDA-MB-231 breast): 2.7 µM | TGI (OVCAR-8 ovarian): 3.59 µM | TGI (OVCAR-3 ovarian): 3.04 µM | TGI (IGROV1 ovarian): 3.34 µM | TGI (M14 melanoma): 3.57 µM | TGI (SK-OV-3 ovarian): 3.18 µM | TGI (SF-268 CNS): 3.42 µM | TGI (DU-145 prostate): 3.13 µM | TGI (HCT-15 colon): 3.47 µM | TGI (PC-3 prostate): 3.37 µM | TGI (UO-31 renal): 3.18 µM | TGI (K-562 leukemia): 2.62 µM | TGI (A549 NSCLC): 3.71 µM | TGI (NCI-H522 lung): 3.37 µM | TGI (SF-539 CNS): 3.45 µM | TGI (MDA-MB-435): 3.33 µM | TGI (SF-295 CNS): 3.58 µM | TGI (HCC-2998 colon): 2.85 µM | TGI (OVCAR-4 ovarian): 3.25 µM | TGI (COLO 205 colon): 8.21 µM | TGI (EKVX NSCLC): 4.37 µM | TGI (SNB-75 CNS): 3 µM | TGI (SNB-19 CNS): 3.19 µM | TGI (MOLT-4 leukemia): 3.3 µM | TGI (786-0 renal): 2.89 µM | TGI (LOX IMVI melanoma): 2.91 µM | TGI (U251 CNS): 3.22 µM | TGI (NCI-H23 lung): 3.35 µM | TGI (CAKI-1 renal): 3.02 µM | TGI (A498 renal): 3.49 µM | TGI (MALME-3M melanoma): 3.37 µM | TGI (ACHN renal): 3.1 µM | TGI (HOP-92 NSCLC): 3.08 µM | TGI (SN12C renal): 3.49 µM | TGI (TK-10 renal): 3.32 µM | TGI (NCI-H226 lung): 3.73 µM | TGI (OVCAR-5 ovarian): 3.4 µM | TGI (SK-MEL-28 melanoma): 3.52 µM | TGI (HCT-116 colon): 3.14 µM | TGI (KM12 colon): 3.16 µM | TGI (NCI/ADR-RES ovarian): 3.38 µM | TGI (MDA-N): 3.29 µM
